Our source for the IC50 values is patent US10246466B2, “Diaryl macrocycles as modulators of protein kinases” (TP THERAPEUTICS, INC., priority 2014, dated 2019).

Type in all cases: cell-based
The test system of experiment [1] is T cell lymphoma Karpas-299 cell line (harboring endogenous NPM-ALK fusion gene). Nature of the experiment: Karpas-299 cell proliferation assay (CellTiter-Glo). To be noted: Homo sapiens, 72 hours incubation, read-out: Karpas 299 cell proli. IC50. A general note: ATP-based viability assays read luminescence as a measure of living cells.
The subject of experiment [2] is Essential thrombocythemia cell line SET-2 cells (harboring endogenous JAK2 point mutation). Nature of the experiment: SET-2 cell proliferation assay (CellTiter-Glo). To be noted: Homo sapiens, 72 hours incubation, read-out: SET2 cell proli. IC50.
In experiment [3] the test system is Colorectal cell line KM12 (harboring endogenous TPM3-TRKA fusion gene). Nature of the experiment: KM12 cell proliferation assay (CellTiter-Glo). To be noted: Homo sapiens, 72 hours incubation, read-out: KM 12 cell prolif. IC50. On the procedure: Colorectal cell lines KM 12 (harboring endogenous TPM3-TRKA fusion gene) cells were cultured in DMEM medium, supplemented with 10% fetal bovine serum and 100 U/mL of penicillin/streptomycin. 5000 cells were seeded in 384 well white plate for 24 hours before compounds treatment. Cell proliferation was measured using CellTiter-Glo luciferase-based ATP detection assay (Promega) following the manufactures's protocol after 72 hours incubation. IC50 determinations were performed using GraphPad Prism software (GraphPad, Inc., San Diego, Calif.).
Alternatively: Colorectal cell line KM12 (harboring endogenous TPM3-TRKA fusion gene) cells were cultured in DMEM medium, supplemented with 10% fetal bovine serum and 100 U/mL of penicillin/streptomycin. […] 5000 cells were seeded in 384 well white plate for 24 hours before compounds treatment. Cell proliferation was measured using CellTiter-Glo luciferase-based ATP detection assay (Promega) following the manufactures's protocol after 72 hours incubation. IC50 determinations were performed using GraphPad Prism software (GraphPad, Inc., San Diego, Calif.).

For orientation: IC50 means the concentration that gives 50% inhibition. On to `C[C@H]1Nc2ccn3ncc(c3n2)C(=O)NC[C@@H](O)COc2ccc(F)cc21` [Example 90, (7R,14R)-12-fluoro-7-hydroxy-14-methyl-5,6,7,8,14,15-hexahydro-4H-1,16-ethenopyrazolo[4,3-g][1,5,9,11]benzoxatriazacyclotetradecin-4-one], for which the IC50 in experiment [1] was determined as 1650 nM; in experiment [2] it was 5910 nM; in experiment [3], 1.8 nM.
For `O=C1NCCOc2ccc(F)cc2C(C2CC2)Nc2ccn3ncc1c3n2` (stereo not drawn) [Example 66, 13-cyclopropyl-11-fluoro-6,7,13,14-tetrahydro-1,15-ethenopyrazolo[4,3-f][1,4,8,10]benzoxatriazacyclotridecin-4(5H)-one], the figures for the half-maximal inhibitory concentration (IC50) in experiment [1], in experiment [2] and in experiment [3] were 1900 nM, 1540 nM and 17.5 nM, respectively.
For `CN1Cc2cc(F)ccc2SCCNC(=O)c2cnn3ccc1nc23` [Example 104, 11-fluoro-14-methyl-6,7,13,14-tetrahydro-1,15-ethenopyrazolo[4,3-f][1,4,8,10]benzothiatriazacyclotridecin-4(5H)-one] the same measures were 5750 nM, 2350 nM and 0.3 nM.
In the same order, the values of `CC(C)(O)CN1Cc2cc(F)ccc2OCCNC(=O)c2cnn3ccc1nc23` [Example 101, 11-fluoro-14-(2-hydroxy-2-methylpropyl)-6,7,13,14-tetrahydro-1,15-ethenopyrazolo[4,3-f][1,4,8,10]benzoxatriazacyclotridecin-4(5H)-one] are above 10000 nM, 6000 nM and above 1000 nM.
In the case of `C[C@H]1Nc2ccn3ncc(c3n2)C(=O)NC[C@H](O)COc2ccc(F)cc21` [Example 91, (7S,14R)-12-fluoro-7-hydroxy-14-methyl-5,6,7,8,14,15-hexahydro-4H-1,16-ethenopyrazolo[4,3-g][1,5,9,11]benzoxatriazacyclotetradecin-4-one], the concentration for half-maximal inhibition (IC50) in experiment [1] is 961 nM; in experiment [2] it was 1540 nM; in experiment [3] it was 1.8 nM.
With `NC(=O)C1Nc2ccn3ncc(c3n2)C(=O)NCCOc2ccc(F)cc21` (stereo not drawn) [Example 60, 11-fluoro-4-oxo-4,5,6,7,13,14-hexahydro-1,15-ethenopyrazolo[4,3-f][1,4,8,10]benzoxatriazacyclotridecine-13-carboxamide], in experiment [3], the IC50 was above 1000 nM.
In the case of `C[C@H]1Nc2ccn3ncc(c3n2)C(=O)NCCCOc2ccc(F)cc21` [Example 76-1, (14R)-12-fluoro-14-methyl-5,6,7,8,14,15-hexahydro-4H-1,16-ethenopyrazolo[4,3-g][1,5,9,11]benzoxatriazacyclotetradecin-4-one], the IC50 was 3800 nM in experiment [1], 1000 nM in experiment [2] and 5.8 nM in experiment [3].
Turning to `O=C1NCCOc2ccc(F)cc2C(C2CCC2)Nc2ccn3ncc1c3n2` (stereo not drawn) [Example 86, 13-cyclobutyl-11-fluoro-6,7,13,14-tetrahydro-1,15-ethenopyrazolo[4,3-f][1,4,8,10]benzoxatriazacyclotridecin-4(5H)-one], the IC50 in experiment [1] is 1000 nM; in experiment [2], 2000 nM.
For the compound `O=C1NCCCOc2ccc(F)cc2C(CO)Nc2ccn3ncc1c3n2` (stereo not drawn) [Example 99, 12-fluoro-14-(hydroxymethyl)-5,6,7,8,14,15-hexahydro-4H-1,16-ethenopyrazolo[4,3-g][1,5,9,11]benzoxatriazacyclotetradecin-4-one], the IC50 in experiment [1] is 506 nM; in experiment [2], 6850 nM; in experiment [3] it was 6.3 nM.
For `CC(C)C1Nc2ccn3ncc(c3n2)C(=O)NCCOc2ccc(F)cc21` (stereo not drawn) [Example 67, 11-fluoro-13-(propan-2-yl)-6,7,13,14-tetrahydro-1,15-ethenopyrazolo[4,3-f][1,4,8,10]benzoxatriazacyclotridecin-4(5H)-one] the same measures were 1200 nM, 1230 nM and 2.8 nM.
For `CN1Cc2cc(F)cnc2OCCNC(=O)c2cnn3ccc1nc23` [Example 61, 11-fluoro-14-methyl-6,7,13,14-tetrahydro-1,15-ethenopyrazolo[4,3-f]pyrido[3,2-1][1,4,8,10]oxatriazacyclotridecin-4(5H)-one] the same measures were 3900 nM, 3750 nM and 0.6 nM.
For `CC1Nc2ccn3ncc(c3n2)C(=O)NCCOc2ccc(Cl)cc21` (stereo not drawn) [Example 84, 11-chloro-13-methyl-6,7,13,14-tetrahydro-1,15-ethenopyrazolo[4,3-f][1,4,8,10]benzoxatriazacyclotridecin-4(5H)-one] the same measures were 4200 nM, 3150 nM and 0.8 nM.
For the compound `C[C@@H]1COc2ccc(F)cc2CN(C)c2ccn3ncc(c3n2)C(=O)N1` [Example 95, (6R)-11-fluoro-6,14-dimethyl-6,7,13,14-tetrahydro-1,15-ethenopyrazolo[4,3-f][1,4,8,10]benzoxatriazacyclotridecin-4(5H)-one], the IC50 came out at 4110 nM in experiment [1], 2670 nM in experiment [2] and 0.4 nM in experiment [3].
On to `C[C@H]1CNC(=O)c2cnn3ccc(nc23)CCc2cc(F)ccc2O1` [Example 108, (7S)-11-fluoro-7-methyl-6,7,13,14-tetrahydro-1,15-ethenopyrazolo[4,3-f][1,4,8]benzoxadiazacyclotridecin-4(5H)-one], for which the IC50 is 619 nM in experiment [1], 870 nM in experiment [2] and 3.6 nM in experiment [3].
As for `CN1Cc2cc(F)ccc2OCC(O)CNC(=O)c2cnn3ccc1nc23` (stereo not drawn) [Example 96, 12-fluoro-7-hydroxy-15-methyl-5,6,7,8,14,15-hexahydro-4H-1,16-ethenopyrazolo[4,3-g][1,5,9,11]benzoxatriazacyclotetradecin-4-one], the figures for the half-maximal inhibitory concentration (IC50) in experiment [1], in experiment [2] and in experiment [3] were 5000 nM, 6000 nM and 0.6 nM, respectively.
As to `CC(C)N1Cc2cc(F)cnc2OCCNC(=O)c2cnn3ccc1nc23` [Example 62, 11-fluoro-14-(propan-2-yl)-6,7,13,14-tetrahydro-1,15-ethenopyrazolo[4,3-f]pyrido[3,2-1][1,4,8,10]oxatriazacyclotridecin-4(5H)-one], the IC50 worked out at 4000 nM in experiment [1] and 0.9 nM in experiment [3].
With `CN1Cc2cc(F)ccc2S(=O)(=O)CCNC(=O)c2cnn3ccc1nc23` [Example 107, 11-fluoro-14-methyl-6,7,13,14-tetrahydro-1,15-ethenopyrazolo[4,3-f][1,4,8,10]benzothiatriazacyclotridecin-4(5H)-one 8,8-dioxide], the IC50 in experiment [1] is above 10000 nM; in experiment [2], 3000 nM; in experiment [3] it was 75.6 nM.
Consider `CN1CCC(N2Cc3cc(F)ccc3OCCNC(=O)c3cnn4ccc2nc34)C1` (stereo not drawn) [Example 105, 11-fluoro-14-(1-methylpyrrolidin-3-yl)-6,7,13,14-tetrahydro-1,15-ethenopyrazolo[4,3-f][1,4,8,10]benzoxatriazacyclotridecin-4(5H)-one], for which the results for the IC50 in experiment [1], in experiment [2] and in experiment [3] were above 5000 nM, above 10000 nM and 500 nM, respectively.
In the same order, the values of `CCC1Nc2ccn3ncc(c3n2)C(=O)NCCOc2ccc(F)cc21` (stereo not drawn) [Example 85, 13-ethyl-11-fluoro-6,7,13,14-tetrahydro-1,15-ethenopyrazolo[4,3-f][1,4,8,10]benzoxatriazacyclotridecin-4(5H)-one] are 1080 nM, 928 nM and 0.9 nM.
In the same order, the values of `C[C@H]1COc2ccc(F)cc2[C@@H](C)Nc2ccn3ncc(c3n2)C(=O)N1` [Example 109, (6S,13R)-11-fluoro-6,13-dimethyl-6,7,13,14-tetrahydro-1,15-ethenopyrazolo[4,3-f][1,4,8,10]benzoxatriazacyclotridecin-4(5H)-one] are 225 nM, 398 nM and 0.86 nM.
For `O=C1NCCOc2ccc(F)cc2CN(CCO)c2ccn3ncc1c3n2` [Example 47, 11-fluoro-14-(2-hydroxyethyl)-6,7,13,14-tetrahydro-1,15-ethenopyrazolo[4,3-f][1,4,8,10]benzoxatriazacyclotridecin-4(5H)-one] the same measures were above 10000 nM, above 10000 nM and 31 nM.
For the compound `CC1COc2ccc(F)cc2CN(C)c2ccn3ncc(c3n2)C(=O)N1` (stereo not drawn) [Example 48, 11-fluoro-6,14-dimethyl-6,7,13,14-tetrahydro-1,15-ethenopyrazolo[4,3-f][1,4,8,10]benzoxatriazacyclotridecin-4(5H)-one], the IC50 in experiment [1] was 6000 nM; in experiment [2] it was 6000 nM; in experiment [3] it was 62 nM.
Consider `O=C1NCCOc2ccc(F)cc2C(CC2CC2)Nc2ccn3ncc1c3n2` (stereo not drawn) [Example 89, 13-(cyclopropylmethyl)-11-fluoro-6,7,13,14-tetrahydro-1,15-ethenopyrazolo[4,3-f][1,4,8,10]benzoxatriazacyclotridecin-4(5H)-one], for which the IC50 was found to be 1400 nM in experiment [1], 859 nM in experiment [2] and 0.2 nM in experiment [3].
Regarding `COC(=O)C1Nc2ccn3ncc(c3n2)C(=O)NCCOc2ccc(F)cc21` (stereo not drawn) [Example 59, methyl 11-fluoro-4-oxo-4,5,6,7,13,14-hexahydro-1,15-ethenopyrazolo[4,3-f][1,4,8,10]benzoxatriazacyclotridecine-13-carboxylate], the IC50 in experiment [3] is above 1000 nM.
